{
  "source": "ChEMBL document CHEMBL1145661",
  "about": "“Studies on Aristolochia, I. Conversion of Aristolochic Acid-I to Aristolic Acid-One-Step Removal of a Nitro Group” (1983)",
  "key": {"Oryctolagus cuniculus [1]": {"test_system": "Oryctolagus cuniculus", "experiment": "Regulation of fertility in rabbit assessed as fetal loss 90 mg/kg", "type": "functional"}, "Oryctolagus cuniculus [2]": {"test_system": "Oryctolagus cuniculus", "experiment": "Regulation of fertility in rabbit assessed as fetal loss 60 mg/kg", "type": "functional"}},
  "data": [
    {"smiles": "COc1cccc2c1ccc1c(C(=O)O)cc3c(c12)OCO3", "note": "[ARISTOLIC ACID]", "values": [
      {"measurement": "Activity", "setting": "Oryctolagus cuniculus [1]", "value": 80, "unit": "%"},
      {"measurement": "Activity", "setting": "Oryctolagus cuniculus [2]", "value": 80, "unit": "%"}
    ]}
  ]
}
